Source: patent US10738028B2, “Spiro three-membered ring, spiro five-membered ring peptide deformylase inhibitor and use thereof in antibacteria and anti-tumor” (priority 2016, dated 2020)
Converted amounts (≈) assume the structure as drawn.

Columns and labels:
Format in all cases: cell-based
[1] = tested on: methicillin-sensitive Staphylococcus epidermidis (MSSE); assay: MIC, two-fold agar dilution (CLSI), clinical isolates
Text: (§1) 1. The invention adopts the two-fold agar dilution method recommended by the operating procedure of antimicrobial susceptibility testing set by American Clinical and Laboratory Standards Institute (CLSI) to determine the Minimum Inhibitory Concentration (MIC) of the test samples against the tested strains.

[2] = tested on: methicillin-resistant Staphylococcus aureus (MRSA); assay: as above
Text: as §1

[3] = tested on: methicillin-sensitive Staphylococcus aureus (MSSA); assay: as above
Text: as §1

[4] = tested on: Enterococcus faecalis (EFA); assay: as above
Text: as §1

[5] = tested on: Enterococcus faecium (EFM); assay: as above
Text: as §1

[6] = tested on: methicillin-resistant Staphylococcus epidermidis (MRSE); assay: as above
Text: as §1

[7] = tested on: Streptococcus pneoumoniae (SPN); assay: as above
Text: as §1

[8] = tested on: Moraxella catarrhalis (BCA); assay: as above; conditions: for Anti-bacterial activity (MIC), strain BCA 14-10: clinical isolate BCA 14-10
Text: as §1

[9] = tested on: Escherichia coli (including ESBLs, non-ESBLs); assay: as above
Text: as §1

[10] = tested on: HCT-116 colorectal cancer cell line; assay: CCK-8 proliferation inhibition; conditions: Homo sapiens, HCT-116, 72 h, concentration of 30 μM; 72 hours; CCK-8; read-out: HCT116 inhibition rate/%
Method in brief: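 Cells were plated overnight at 2000 cells/well, then compound in culture medium was added at a range of final concentrations. After 72 hours in a CO2 incubator, medium was replaced with 1:10 CCK-8 solution for the read-out.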

Q: With O=CN(O)C[C@@H](CC1CCCC1)C(=O)N1CC2(CC2)C[C@H]1C(=O)Nc1ccncn1 [Example 27, (S)-5-((R)-3-cyclopentyl-2-((N-hydroxyformamido)methyl)propionyl)-N-(pyrimidin-4-yl)-5-spiro[2.4]heptane-6-carboxamide] as the compound, how does the MIC (anti-bacterial activity) ([1]; strain MSSE 15-3) read?
A: 0.125 µg/mL (≈ 0.301 µM)

Q: What about the MIC (anti-bacterial activity) ([1]; strain MSSE 15-4) of the same compound?
A: 0.125 µg/mL (≈ 0.301 µM)

Q: And the MIC (anti-bacterial activity) ([1]; strain MSSE 15-5)?
A: 0.125 µg/mL (≈ 0.301 µM)

Q: What about the MIC (anti-bacterial activity) ([1]; strain MSSE 15-6) of the same compound?
A: 0.125 µg/mL (≈ 0.301 µM)

Q: And the MIC (anti-bacterial activity) ([2]; strain MRSA 15-1)?
A: 0.125 µg/mL (≈ 0.301 µM)

Q: And the MIC (anti-bacterial activity) ([2]; strain MRSA 15-2)?
A: 0.125 µg/mL (≈ 0.301 µM)

Q: What about the MIC (anti-bacterial activity) ([2]; strain MRSA 15-3) of the same compound?
A: 0.125 µg/mL (≈ 0.301 µM)

Q: And the MIC (anti-bacterial activity) ([2]; strain MRSA 15-4)?
A: 0.125 µg/mL (≈ 0.301 µM)

Q: What about the MIC (anti-bacterial activity) ([3]; strain MSSA 15-3) of the same compound?
A: 0.125 µg/mL (≈ 0.301 µM)

Q: And the MIC (anti-bacterial activity) ([3]; strain MSSA 15-4)?
A: 0.125 µg/mL (≈ 0.301 µM)

Q: And the MIC (anti-bacterial activity) ([3]; strain MSSA 15-5)?
A: 0.125 µg/mL (≈ 0.301 µM)

Q: What about the MIC (anti-bacterial activity) ([3]; strain MSSA 15-6) of the same compound?
A: 0.125 µg/mL (≈ 0.301 µM)

Q: And the MIC (anti-bacterial activity) ([4]; strain EFA 15-1)?
A: 2 µg/mL (≈ 4.81 µM)

Q: What about the MIC (anti-bacterial activity) ([4]; strain EFA 15-2) of the same compound?
A: 2 µg/mL (≈ 4.81 µM)

Q: What about the MIC (anti-bacterial activity) ([4]; strain EFA 15-3) of the same compound?
A: 2 µg/mL (≈ 4.81 µM)

Q: And the MIC (anti-bacterial activity) ([4]; strain EFA 15-4)?
A: 2 µg/mL (≈ 4.81 µM)

Q: And the MIC (anti-bacterial activity) ([4]; strain EFA 15-5)?
A: 2 µg/mL (≈ 4.81 µM)

Q: What about the MIC (anti-bacterial activity) ([4]; strain EFA 15-6) of the same compound?
A: 2 µg/mL (≈ 4.81 µM)

Q: What about the MIC (anti-bacterial activity) ([4]; strain EFA 15-9) of the same compound?
A: 2 µg/mL (≈ 4.81 µM)

Q: And the MIC (anti-bacterial activity) ([5]; strain EFM 15-1)?
A: 0.25 µg/mL (≈ 0.602 µM)

Q: And the MIC (anti-bacterial activity) ([5]; strain EFM 15-2)?
A: 1 µg/mL (≈ 2.41 µM)

Q: And the MIC (anti-bacterial activity) ([5]; strain EFM 15-3)?
A: 0.25 µg/mL (≈ 0.602 µM)

Q: What about the MIC (anti-bacterial activity) ([5]; strain EFM 15-4) of the same compound?
A: 0.5 µg/mL (≈ 1.2 µM)

Q: What about the MIC (anti-bacterial activity) ([5]; strain EFM 15-5) of the same compound?
A: 0.25 µg/mL (≈ 0.602 µM)

Q: And the MIC (anti-bacterial activity) ([5]; strain EFM 15-6)?
A: 0.5 µg/mL (≈ 1.2 µM)

Q: And the MIC (anti-bacterial activity) ([6]; strain MRSE 15-1)?
A: 0.06 µg/mL (≈ 0.144 µM)

Q: And the MIC (anti-bacterial activity) ([6]; strain MRSE 15-2)?
A: 0.125 µg/mL (≈ 0.301 µM)

Q: What about the MIC (anti-bacterial activity) ([6]; strain MRSE 15-3) of the same compound?
A: 0.125 µg/mL (≈ 0.301 µM)

Q: What about the MIC (anti-bacterial activity) ([6]; strain MRSE 15-7) of the same compound?
A: 0.125 µg/mL (≈ 0.301 µM)

Q: What about the MIC (anti-bacterial activity) ([7]; strain SPN 16-2) of the same compound?
A: 0.25 µg/mL (≈ 0.602 µM)

Q: What about the MIC (anti-bacterial activity) ([7]; strain SPN 16-4) of the same compound?
A: 2 µg/mL (≈ 4.81 µM)

Q: What about the Anti-bacterial activity (MIC), strain BCA 14-10 [8] of the same compound?
A: 0.5 µg/mL

Q: What about the MIC (anti-bacterial activity) ([8]; strain BCA 14-1) of the same compound?
A: 2 µg/mL (≈ 4.81 µM)

Q: And the MIC (anti-bacterial activity) ([8]; strain BCA 14-4)?
A: 2 µg/mL (≈ 4.81 µM)

Q: And the MIC (anti-bacterial activity) ([8]; strain BCA 14-5)?
A: 0.25 µg/mL (≈ 0.602 µM)

Q: And the MIC (anti-bacterial activity) ([8]; strain BCA 14-6)?
A: 0.125 µg/mL (≈ 0.301 µM)

Q: What about the MIC (anti-bacterial activity) ([8]; strain BCA 14-7) of the same compound?
A: 0.25 µg/mL (≈ 0.602 µM)

Q: What about the MIC (anti-bacterial activity) ([8]; strain BCA 14-8) of the same compound?
A: 0.5 µg/mL (≈ 1.2 µM)

Q: And the MIC (anti-bacterial activity) ([9]; strain ECO+ 15-1)?
A: 16 µg/mL (≈ 38.5 µM)

Q: And the MIC (anti-bacterial activity) ([9]; strain ECO+ 15-2)?
A: 32 µg/mL (≈ 77 µM)

Q: And the MIC (anti-bacterial activity) ([9]; strain ECO+ 15-3)?
A: 32 µg/mL (≈ 77 µM)

Q: And the MIC (anti-bacterial activity) ([9]; strain ECO+ 15-4)?
A: 32 µg/mL (≈ 77 µM)

Q: And the MIC (anti-bacterial activity) ([9]; strain ECO− 15-1)?
A: 32 µg/mL (≈ 77 µM)

Q: What about the MIC (anti-bacterial activity) ([9]; strain ECO− 15-2) of the same compound?
A: 32 µg/mL (≈ 77 µM)

Q: What about the MIC (anti-bacterial activity) ([9]; strain ECO− 15-3) of the same compound?
A: 32 µg/mL (≈ 77 µM)

Q: And the MIC (anti-bacterial activity) ([9]; strain ECO− 15-4)?
A: 32 µg/mL (≈ 77 µM)

Q: And the inhibition at 30 µM [10]?
A: 17%

Q: What does the source list for O=CN(O)C[C@@H](CC1CCCC1)C(=O)N1CC2(CC2)C[C@H]1C(=O)Nc1ccc(F)cn1 [Example 28]?
A: MIC (anti-bacterial activity) ([1]; strain MSSE 15-3): 0.125 µg/mL (≈ 0.289 µM); MIC (anti-bacterial activity) ([1]; strain MSSE 15-4): 0.125 µg/mL (≈ 0.289 µM); MIC (anti-bacterial activity) ([1]; strain MSSE 15-5): 0.125 µg/mL (≈ 0.289 µM); MIC (anti-bacterial activity) ([1]; strain MSSE 15-6): 0.06 µg/mL (≈ 0.139 µM); MIC (anti-bacterial activity) ([2]; strain MRSA 15-1): 0.125 µg/mL (≈ 0.289 µM); MIC (anti-bacterial activity) ([2]; strain MRSA 15-2): 0.125 µg/mL (≈ 0.289 µM); MIC (anti-bacterial activity) ([2]; strain MRSA 15-3): 0.125 µg/mL (≈ 0.289 µM); MIC (anti-bacterial activity) ([2]; strain MRSA 15-4): 0.125 µg/mL (≈ 0.289 µM); MIC (anti-bacterial activity) ([3]; strain MSSA 15-3): 0.125 µg/mL (≈ 0.289 µM); MIC (anti-bacterial activity) ([3]; strain MSSA 15-4): 0.125 µg/mL (≈ 0.289 µM); MIC (anti-bacterial activity) ([3]; strain MSSA 15-5): 0.125 µg/mL (≈ 0.289 µM); MIC (anti-bacterial activity) ([3]; strain MSSA 15-6): 0.125 µg/mL (≈ 0.289 µM); MIC (anti-bacterial activity) ([4]; strain EFA 15-1): 2 µg/mL (≈ 4.62 µM); MIC (anti-bacterial activity) ([4]; strain EFA 15-2): 2 µg/mL (≈ 4.62 µM); MIC (anti-bacterial activity) ([4]; strain EFA 15-3): 2 µg/mL (≈ 4.62 µM); MIC (anti-bacterial activity) ([4]; strain EFA 15-4): 2 µg/mL (≈ 4.62 µM); MIC (anti-bacterial activity) ([4]; strain EFA 15-5): 2 µg/mL (≈ 4.62 µM); MIC (anti-bacterial activity) ([4]; strain EFA 15-6): 2 µg/mL (≈ 4.62 µM); MIC (anti-bacterial activity) ([4]; strain EFA 15-9): 2 µg/mL (≈ 4.62 µM); MIC (anti-bacterial activity) ([5]; strain EFM 15-1): 0.5 µg/mL (≈ 1.16 µM); MIC (anti-bacterial activity) ([5]; strain EFM 15-2): 1 µg/mL (≈ 2.31 µM); MIC (anti-bacterial activity) ([5]; strain EFM 15-3): 0.125 µg/mL (≈ 0.289 µM); MIC (anti-bacterial activity) ([5]; strain EFM 15-4): 1 µg/mL (≈ 2.31 µM); MIC (anti-bacterial activity) ([5]; strain EFM 15-5): 1 µg/mL (≈ 2.31 µM); MIC (anti-bacterial activity) ([5]; strain EFM 15-6): 1 µg/mL (≈ 2.31 µM); MIC (anti-bacterial activity) ([6]; strain MRSE 15-1): 0.125 µg/mL (≈ 0.289 µM); MIC (anti-bacterial activity) ([6]; strain MRSE 15-2): 0.5 µg/mL (≈ 1.16 µM); MIC (anti-bacterial activity) ([6]; strain MRSE 15-3): 0.5 µg/mL (≈ 1.16 µM); MIC (anti-bacterial activity) ([6]; strain MRSE 15-7): 0.5 µg/mL (≈ 1.16 µM); MIC (anti-bacterial activity) ([7]; strain SPN 16-4): 1 µg/mL (≈ 2.31 µM); Anti-bacterial activity (MIC), strain BCA 14-10 [8]: 0.25 µg/mL; MIC (anti-bacterial activity) ([8]; strain BCA 14-1): 1 µg/mL (≈ 2.31 µM); MIC (anti-bacterial activity) ([8]; strain BCA 14-4): 1 µg/mL (≈ 2.31 µM); MIC (anti-bacterial activity) ([8]; strain BCA 14-5): 0.25 µg/mL (≈ 0.578 µM); MIC (anti-bacterial activity) ([8]; strain BCA 14-6): 1 µg/mL (≈ 2.31 µM); MIC (anti-bacterial activity) ([8]; strain BCA 14-7): 0.125 µg/mL (≈ 0.289 µM); MIC (anti-bacterial activity) ([8]; strain BCA 14-8): 0.5 µg/mL (≈ 1.16 µM); MIC (anti-bacterial activity) ([9]; strain ECO+ 15-1): 16 µg/mL (≈ 37 µM); MIC (anti-bacterial activity) ([9]; strain ECO+ 15-2): 64 µg/mL (≈ 148 µM); MIC (anti-bacterial activity) ([9]; strain ECO+ 15-3): 64 µg/mL (≈ 148 µM); MIC (anti-bacterial activity) ([9]; strain ECO+ 15-4): 32 µg/mL (≈ 74 µM); MIC (anti-bacterial activity) ([9]; strain ECO− 15-1): 32 µg/mL (≈ 74 µM); MIC (anti-bacterial activity) ([9]; strain ECO− 15-2): 32 µg/mL (≈ 74 µM); MIC (anti-bacterial activity) ([9]; strain ECO− 15-3): 64 µg/mL (≈ 148 µM); MIC (anti-bacterial activity) ([9]; strain ECO− 15-4): 64 µg/mL (≈ 148 µM); inhibition at 30 µM [10]: 21%
